Experimental data from publication PMC6199744, “Development of Chemical Proteomics for the Folateome and Analysis of the Kinetoplastid Folateome” (ACS Infectious Diseases, 2018).
“And” between values parts separate entries of the source, which are not always exact repeats. Equal values may be shown once. Read-outs that look alike come from different tables or passages of the source.

Legend:
Assay type in all cases: binding
[1] = target: T1, HeLa cell extract proteins (Homo sapiens, UniProt O00408); conditions: protein PDE2A; HeLa
T1 construct: endogenous in cells; host or cells: HeLa cell extract

[2] = target: T2, HeLa cell extract proteins (Homo sapiens, UniProt O15162); conditions: HeLa
T2 construct: endogenous in cells; host or cells: HeLa cell extract
T2 sequence (O15162 1-318): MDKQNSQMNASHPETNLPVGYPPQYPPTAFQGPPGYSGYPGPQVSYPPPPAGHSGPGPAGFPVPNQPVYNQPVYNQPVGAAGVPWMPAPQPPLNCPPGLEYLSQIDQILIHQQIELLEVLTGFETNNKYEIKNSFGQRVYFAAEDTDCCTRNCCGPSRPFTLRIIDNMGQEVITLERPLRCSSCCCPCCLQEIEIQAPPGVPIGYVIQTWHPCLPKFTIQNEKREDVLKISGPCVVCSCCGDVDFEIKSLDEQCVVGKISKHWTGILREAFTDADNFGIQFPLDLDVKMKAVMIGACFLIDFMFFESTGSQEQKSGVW

[3] = target: T3, HeLa cell extract proteins (Homo sapiens, UniProt P08559); conditions: HeLa
T3 construct: endogenous in cells; host or cells: HeLa cell extract
T3 sequence (P08559 30-390): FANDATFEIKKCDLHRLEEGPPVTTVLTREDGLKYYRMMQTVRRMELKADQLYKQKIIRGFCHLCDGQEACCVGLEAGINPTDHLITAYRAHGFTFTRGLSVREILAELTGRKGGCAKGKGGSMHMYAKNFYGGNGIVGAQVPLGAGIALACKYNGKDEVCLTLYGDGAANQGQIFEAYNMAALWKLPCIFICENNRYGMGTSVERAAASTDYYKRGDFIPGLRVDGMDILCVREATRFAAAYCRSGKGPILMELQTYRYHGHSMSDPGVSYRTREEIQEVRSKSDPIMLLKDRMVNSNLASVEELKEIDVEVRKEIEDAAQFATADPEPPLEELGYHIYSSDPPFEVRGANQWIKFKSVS

[4] = target: T4, HeLa cell extract proteins (Homo sapiens, UniProt P09622); conditions: HeLa
T4 construct: endogenous in cells; host or cells: HeLa cell extract
T4 sequence (P09622 36-509): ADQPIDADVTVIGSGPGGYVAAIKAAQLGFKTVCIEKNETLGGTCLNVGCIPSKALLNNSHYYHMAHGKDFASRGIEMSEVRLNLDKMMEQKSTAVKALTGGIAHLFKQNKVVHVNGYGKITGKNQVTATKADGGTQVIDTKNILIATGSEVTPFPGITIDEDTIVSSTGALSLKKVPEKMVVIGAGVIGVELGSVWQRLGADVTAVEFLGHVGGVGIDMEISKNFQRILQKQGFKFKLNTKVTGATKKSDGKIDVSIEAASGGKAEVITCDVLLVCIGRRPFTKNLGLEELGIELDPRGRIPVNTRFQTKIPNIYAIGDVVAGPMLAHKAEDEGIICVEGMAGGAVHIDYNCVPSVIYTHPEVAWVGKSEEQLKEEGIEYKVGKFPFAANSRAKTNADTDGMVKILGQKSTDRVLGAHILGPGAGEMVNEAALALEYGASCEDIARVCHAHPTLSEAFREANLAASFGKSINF

[5] = target: T5, HeLa cell extract proteins (Homo sapiens, UniProt P39019); conditions: HeLa
T5 construct: endogenous in cells; host or cells: HeLa cell extract

[6] = target: T6, HeLa cell extract proteins (Homo sapiens, UniProt P48047); conditions: HeLa
T6 construct: endogenous in cells; host or cells: HeLa cell extract
T6 sequence (P48047 24-213): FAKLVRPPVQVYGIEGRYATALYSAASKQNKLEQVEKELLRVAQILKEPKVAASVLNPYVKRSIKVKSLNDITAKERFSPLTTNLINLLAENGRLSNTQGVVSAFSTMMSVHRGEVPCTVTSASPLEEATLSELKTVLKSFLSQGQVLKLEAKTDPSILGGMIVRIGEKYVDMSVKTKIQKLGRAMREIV

[7] = target: T7, HeLa cell extract proteins (Homo sapiens, UniProt P48643); conditions: HeLa
T7 construct: endogenous in cells; host or cells: HeLa cell extract

[8] = target: T8, HeLa cell extract proteins (Homo sapiens, UniProt P55795); conditions: HeLa
T8 construct: endogenous in cells; host or cells: HeLa cell extract
T8 sequence (P55795 1-449): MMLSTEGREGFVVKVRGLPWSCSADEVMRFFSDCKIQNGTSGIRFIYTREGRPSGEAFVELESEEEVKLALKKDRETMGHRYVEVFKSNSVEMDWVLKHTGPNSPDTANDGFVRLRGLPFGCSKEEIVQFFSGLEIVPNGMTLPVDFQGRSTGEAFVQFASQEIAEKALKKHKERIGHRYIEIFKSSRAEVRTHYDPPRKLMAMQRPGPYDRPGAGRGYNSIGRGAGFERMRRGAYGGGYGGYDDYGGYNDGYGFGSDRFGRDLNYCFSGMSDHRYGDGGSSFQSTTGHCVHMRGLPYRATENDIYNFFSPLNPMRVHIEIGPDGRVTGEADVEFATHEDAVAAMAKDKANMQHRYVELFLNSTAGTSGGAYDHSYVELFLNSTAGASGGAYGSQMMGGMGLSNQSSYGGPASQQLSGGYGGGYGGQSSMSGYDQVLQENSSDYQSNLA

[9] = target: T9, HeLa cell extract proteins (Homo sapiens, UniProt Q9Y679); conditions: HeLa
T9 construct: endogenous in cells; host or cells: HeLa cell extract
T9 sequence (Q9Y679 1-410): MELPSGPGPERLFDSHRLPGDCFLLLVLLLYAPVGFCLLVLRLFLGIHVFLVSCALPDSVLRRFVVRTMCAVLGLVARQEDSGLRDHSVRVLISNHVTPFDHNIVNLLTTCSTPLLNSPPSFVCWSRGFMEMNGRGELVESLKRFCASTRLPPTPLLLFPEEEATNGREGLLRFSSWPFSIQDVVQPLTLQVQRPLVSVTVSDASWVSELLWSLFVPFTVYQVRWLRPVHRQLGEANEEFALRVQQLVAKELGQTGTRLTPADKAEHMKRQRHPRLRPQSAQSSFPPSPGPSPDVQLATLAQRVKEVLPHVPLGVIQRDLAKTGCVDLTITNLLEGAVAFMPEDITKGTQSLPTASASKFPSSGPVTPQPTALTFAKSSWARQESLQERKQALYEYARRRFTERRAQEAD

[10] = tested on: HeLa cell extract proteins
[11] = protein RPS19 (40S RIBOSOMAL PROTEIN S19)
[12] = HeLa, captured protein LOC442497
[13] = HeLa, protein ABCB7 (ISOFORM 2 OF ATP-BINDING CASSETTE SUB-FAMILY B MEMBER 7, MIT[…])
[14] = HeLa, protein ASAH1 (N-ACYLSPHINGOSINE AMIDOHYDROLASE (ACID CERAMIDASE) 1 ISOFORM B)
[15] = HeLa, protein MYL6 (ISOFORM SMOOTH MUSCLE OF MYOSIN LIGHT POLYPEPTIDE 6)
[16] = HeLa, protein PSMA1 (ISOFORM LONG OF […] ALPHA TYPE 1)

T7 sequence (P48643 whole entry): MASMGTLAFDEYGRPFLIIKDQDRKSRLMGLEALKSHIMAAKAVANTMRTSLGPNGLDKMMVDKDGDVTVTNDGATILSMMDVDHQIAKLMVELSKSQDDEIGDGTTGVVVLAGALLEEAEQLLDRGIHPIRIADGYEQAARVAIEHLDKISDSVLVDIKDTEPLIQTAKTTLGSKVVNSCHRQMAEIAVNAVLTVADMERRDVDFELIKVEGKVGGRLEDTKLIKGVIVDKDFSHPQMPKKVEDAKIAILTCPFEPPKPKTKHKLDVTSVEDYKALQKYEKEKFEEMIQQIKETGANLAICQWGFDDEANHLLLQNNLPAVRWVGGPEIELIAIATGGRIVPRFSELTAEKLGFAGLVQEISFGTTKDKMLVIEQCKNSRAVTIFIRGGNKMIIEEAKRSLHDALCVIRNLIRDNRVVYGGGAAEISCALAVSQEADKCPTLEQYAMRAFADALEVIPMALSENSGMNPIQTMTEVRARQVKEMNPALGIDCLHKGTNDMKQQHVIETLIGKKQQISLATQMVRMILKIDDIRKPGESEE
T1 sequence (O00408 whole entry): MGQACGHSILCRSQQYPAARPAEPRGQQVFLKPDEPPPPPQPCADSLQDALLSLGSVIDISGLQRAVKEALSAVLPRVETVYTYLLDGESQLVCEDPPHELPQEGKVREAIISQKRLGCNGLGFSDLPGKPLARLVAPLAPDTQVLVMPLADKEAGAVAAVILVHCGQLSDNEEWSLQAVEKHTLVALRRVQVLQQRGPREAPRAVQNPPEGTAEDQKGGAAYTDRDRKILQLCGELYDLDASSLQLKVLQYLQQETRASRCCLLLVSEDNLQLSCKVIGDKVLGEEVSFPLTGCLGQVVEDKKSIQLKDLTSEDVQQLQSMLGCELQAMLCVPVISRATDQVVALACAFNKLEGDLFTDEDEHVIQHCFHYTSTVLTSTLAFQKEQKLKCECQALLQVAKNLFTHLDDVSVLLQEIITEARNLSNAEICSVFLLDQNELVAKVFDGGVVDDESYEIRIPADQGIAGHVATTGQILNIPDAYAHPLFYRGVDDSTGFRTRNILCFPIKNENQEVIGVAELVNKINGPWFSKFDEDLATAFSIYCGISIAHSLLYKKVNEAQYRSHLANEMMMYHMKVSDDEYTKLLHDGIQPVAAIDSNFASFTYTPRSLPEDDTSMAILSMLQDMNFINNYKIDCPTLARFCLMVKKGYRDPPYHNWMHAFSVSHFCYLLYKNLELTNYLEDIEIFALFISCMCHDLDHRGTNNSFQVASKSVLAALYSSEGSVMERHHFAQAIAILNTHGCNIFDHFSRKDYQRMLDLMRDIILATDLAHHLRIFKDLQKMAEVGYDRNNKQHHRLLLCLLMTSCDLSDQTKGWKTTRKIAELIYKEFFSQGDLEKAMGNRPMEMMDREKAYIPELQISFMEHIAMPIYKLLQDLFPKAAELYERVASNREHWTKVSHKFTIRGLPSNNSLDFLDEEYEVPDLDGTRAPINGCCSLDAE

Row | SMILES | fold changes relative to vehicle control [1] | fold changes relative to vehicle control ([2]; captured protein PLSCR1) | fold changes relative to vehicle control ([3]; captured protein PDHA1) | fold changes relative to vehicle control ([4]; captured protein DLD) | fold changes relative to vehicle control [5, 11] | fold changes relative to vehicle control ([6]; captured protein ATP5O) | fold changes relative to vehicle control ([7]; protein CCT5) | fold changes relative to vehicle control ([8]; captured protein HNRNPH2) | fold changes relative to vehicle control ([9]; protein AUP1) | fold changes relative to vehicle control ([10]; HeLa, captured protein EIF1AP1) | fold changes relative to vehicle control [10, 12] | fold changes relative to vehicle control [10, 13] | fold changes relative to vehicle control [10, 14] | fold changes relative to vehicle control ([10]; HeLa, protein LOC654188) | fold changes relative to vehicle control [10, 15] | fold changes relative to vehicle control ([10]; HeLa, protein NME1-NME2) | fold changes relative to vehicle control [10, 16] | fold changes relative to vehicle control ([10]; HeLa, protein RPLP0-LIKE) | fold changes relative to vehicle control ([10]; protein HIST2H2BA, HeLa) | fold changes relative to vehicle control ([10]; protein LOC646960, HeLa) | further results
1 | Nc1nc2cccc(-c3ccccc3)c2n1Cc1ccc(Cl)c(Cl)c1 [compound 3] | 0.64 |  |  |  |  |  |  |  |  |  |  |  |  |  |  |  |  |  |  |  | fold changes relative to vehicle control ([2]; protein PLSCR1): 0.98; fold changes relative to vehicle control ([3]; protein PDHA1): 1.07; fold changes relative to vehicle control ([4]; protein DLD): 1.01; fold changes relative to vehicle control ([5]; protein RPS19): 1.01; fold changes relative to vehicle control ([6]; protein ATP5O): 0.9; fold changes relative to vehicle control ([7]; protein CCT5 (T-COMPLEX PROTEIN 1 SUBUNIT EPSILON.)): 1.18 fold; fold changes relative to vehicle control ([8]; protein HNRNPH2): 1.05; fold changes relative to vehicle control ([9]; captured protein AUP1): 0.9; fold changes relative to vehicle control [10]: 0.88 fold and 1 fold; fold changes relative to vehicle control ([10]; HeLa, protein A8MV93_HUMAN (SIMILAR TO CYTOCHROME C.)): 1.12 fold; fold changes relative to vehicle control ([10]; HeLa, protein CTNNA1 (ISOFORM 2 OF CATENIN ALPHA-1.)): 2.07 fold; fold changes relative to vehicle control ([10]; HeLa, protein LOC646960): 1.08; fold changes relative to vehicle control ([10]; HeLa, protein LOC654188 (SIMILAR TO PEPT[…] A-LIKE.)): 0.91 fold; fold changes relative to vehicle control ([10]; protein EIF1AP1, HeLa): 0.97; fold changes relative to vehicle control ([10]; protein LOC442497, HeLa): 1.03; fold changes relative to vehicle control ([10]; protein RPLP0-LIKE, HeLa): 1.04
2 | NCCOCCOCC(=O)Nc1nc2ncc(CNc3ccc(C(=O)NC(CCC(=O)O)C(=O)O)cc3)nc2c(=O)[nH]1 (stereo not shown) [compound 6] | 0.79 | 0.96 | 1 | 0.99 | 1.1 | 0.97 | 1.29 | 0.83 | 0.92 | 1.27 | 1.13 | 1.25 | 1.17 | 1.3 | 1.7 | 1.27 | 1.05 | 0.88 | 1.03 | 1.05 | fold changes relative to vehicle control ([10]; HeLa, protein GTPBP3 (ISOFORM 2 OF TRNA MO[…] GTPBP3, MIT[…])): 1.03; fold changes relative to vehicle control ([10]; HeLa, protein PSME1 ([…] SUBUNIT 1 ISOFORM 2)): 1.04
3 | NCCCNc1ccc(C(=O)NC(CCC(=O)O)C(=O)O)cc1 (stereo not shown) [compound 7] | 0.7 | 1.07 | 0.99 | 1.03 | 1.06 | 1.02 | 1.03 | 0.91 | 0.9 | 0.98 | 1.05 | 1.23 | 1.18 | 0.99 | 1.14 | 0.91 | 1.02 | 0.93 | 0.9 | 1.02 | fold changes relative to vehicle control ([10]; HeLa, protein GTPBP3 (ISOFORM 2 OF TRNA MODIFICATION GTPASE GTPBP3, MITOCHONDRIAL PRECURSOR)): 1; fold changes relative to vehicle control ([10]; HeLa, protein PSME1 (PROTEASOME ACTIVATOR SUBUNIT 1 ISOFORM 2)): 0.98
